The assay addresses N-terminal active peptide segment (MI-N899) of POLQ with ATPase activity (Homo sapiens (Human), UniProt O75417). As to the kind of experiment: POLQ enzyme activity inhibition experiment (ATPase, NADH-coupled, OD 340 nm). It is filed as biochemical. The following applies: 100 nM POLQ (N), 100 μM ATP, 300 nM dT50. As for the experimental part: The Envision microplate reader from Perkin Elmer Inc was used to measure the reduction of OD value of NADH at 340 nm, thus reflecting the enzyme activity. Experimental method: The POLQ enzyme was diluted to 100 nM with a reaction buffer (20 mM Tris HCl (pH 7.80), 80 mM KCl, 10 mM MgCl2, 1 mM DTT, 0.01% w/v bovine serum albumin, 0.01% v/v Tween-20, and 5% v/v glycerol). The compounds to be tested were diluted to different concentrations in dimethyl sulfoxide (DMSO) using the Echo 650 pipetting system, and transferred to a 384-well plate, 20 μL/well of 100 nM POLQ was added, and the mixture was incubated at room temperature for 15 minutes. A reaction mixture solution was formulated, and the concentration of each component in the reaction mixture solution was: 100 μM ATP, 300 nM […], 300 μM NADH, 6 mM PEP, 10 U/mL lactate dehydrogenase and 20 U/mL pyruvate kinase. 20 μL/well of reaction mixture solution was added to start the enzyme reaction. […] The concentration range was from 10 μM to 0.0005 μM, and the final concentration of DMSO in the system was 0.2% v/v. The 384-well plate was reacted at room temperature for 20 minutes, and then the OD value at 340 nm was read with an Envision microplate reader. The inhibition rate was calculated, and XLfit software was used to perform fitting to obtain IC50 of the compounds. In the experiment, a blank group and a DMSO group were set up, respectively.
Sequence of N-terminal active peptide segment (MI-N899) of POLQ with ATPase activity (O75417 1-899 limits assumed): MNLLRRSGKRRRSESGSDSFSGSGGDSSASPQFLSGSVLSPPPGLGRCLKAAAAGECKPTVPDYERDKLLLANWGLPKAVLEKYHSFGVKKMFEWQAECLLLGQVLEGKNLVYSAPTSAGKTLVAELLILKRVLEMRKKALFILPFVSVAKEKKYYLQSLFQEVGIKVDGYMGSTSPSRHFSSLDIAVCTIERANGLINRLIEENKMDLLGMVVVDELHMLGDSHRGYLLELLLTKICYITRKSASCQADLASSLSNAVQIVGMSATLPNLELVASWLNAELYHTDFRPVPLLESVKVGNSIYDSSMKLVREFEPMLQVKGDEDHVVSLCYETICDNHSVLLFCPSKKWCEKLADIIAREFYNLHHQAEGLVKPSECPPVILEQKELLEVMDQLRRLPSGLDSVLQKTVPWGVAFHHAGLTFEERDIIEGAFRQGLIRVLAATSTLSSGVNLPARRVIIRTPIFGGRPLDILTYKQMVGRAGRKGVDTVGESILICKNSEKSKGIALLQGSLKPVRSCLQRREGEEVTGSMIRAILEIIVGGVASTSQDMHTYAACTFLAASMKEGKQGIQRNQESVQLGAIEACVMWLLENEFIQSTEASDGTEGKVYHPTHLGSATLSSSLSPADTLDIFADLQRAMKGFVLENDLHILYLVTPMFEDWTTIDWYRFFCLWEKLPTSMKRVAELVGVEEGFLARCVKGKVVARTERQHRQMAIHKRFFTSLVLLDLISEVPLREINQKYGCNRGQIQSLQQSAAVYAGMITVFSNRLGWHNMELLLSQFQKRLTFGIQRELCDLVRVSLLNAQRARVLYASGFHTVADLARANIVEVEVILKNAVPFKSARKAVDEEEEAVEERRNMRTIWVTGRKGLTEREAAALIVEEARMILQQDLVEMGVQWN
As a reminder, the IC50 is the concentration needed to halve the response being measured. A lower IC50 goes with greater potency in that assay. Take `COc1cc(C#N)ccc1-c1cnccc1C(=O)Nc1nc2ncc(-c3ccc(C#N)cc3)nc2s1` [Compound 40, 3-(4-cyano-2-methoxyphenyl)-N-(6-(4-cyanophenyl)thiazolo[4,5-b]pyrazin-2-yl)pyridine-4-carboxamide]: the IC50 is < 100 nM.

For `COc1ccccc1-c1cn2ncnc2cc1C(=O)Nc1nc2ncc(-c3ccc(C#N)cc3)nc2s1` [Compound 57, N-(6-(4-cyanophenyl)thiazolo[4,5-b]pyrazin-2-yl)-6-(2-methoxyphenyl)-[1,2,4]triazolo[1,5-a]pyridine-7-carboxamide], the IC50 is < 100 nM.

As for `Cc1cc(-c2cc(Cl)ccc2C(F)(F)F)c(C(=O)Nc2nc3ncc(-c4ccc(C#N)cc4)nc3s2)cn1` [Compound 88, 4-(5-chloro-2-(trifluoromethyl)phenyl)-N-(6-(4-cyanophenyl)thiazolo[4,5-b]pyrazin-2-yl)-6-methylpyridine-3-carboxamide], the 50% inhibitory concentration (IC50) was < 100 nM.

Consider `COc1cnc(C)cc1-c1cc(C)ncc1C(=O)Nc1nc2ncc(-c3ccc(Cl)cn3)nc2s1` [Compound 66, N-(6-(5-chloropyridin-2-yl)thiazolo[4,5-b]pyrazin-2-yl)-5′-methoxy-2′,6-dimethyl-[4,4′-bipyridine]-3-carboxamide], for which the IC50 was < 100 nM.

As to `COc1ccccc1-c1cnccc1C(=O)Nc1nc2ncc(-c3ccc(C)cc3)nc2s1` [Compound 6, 3-(2-methoxyphenyl)-N-(6-(4-methylphenyl)thiazolo[4,5-b]pyrazin-2-yl)pyridine-4-carboxamide], the IC50 was < 100 nM.

Regarding `C#Cc1ccccc1-c1cnccc1C(=O)Nc1nc2ncc(-c3ccc(Cl)cc3)nc2s1` [Compound 29, N-(6-(4-chlorophenyl)thiazolo[4,5-b]pyrazin-2-yl)-3-(2-ethynylphenyl)pyridine-4-carboxamide], the IC50 is < 100 nM.

In the case of `COc1ccccc1-c1cnccc1C(=O)Nc1nc2ncc(-c3ccc(Cl)cc3)nc2s1` [Compound 2, N-(6-(4-chlorophenyl)thiazolo[4,5-b]pyrazin-2-yl)-3-(2-methoxyphenyl)pyridine-4-carboxamide], the IC50 was < 100 nM.

For the compound `COc1ccccc1-c1ccccc1C(=O)Nc1nc2ncc(-c3ccc(C#N)cc3)nc2s1` [Compound 55, N-(6-(4-cyanophenyl)thiazolo[4,5-b]pyrazin-2-yl)-2′-methoxy-[1,1′-biphenyl]-2-carboxamide], the IC50 was < 100 nM.

As to `N#Cc1ccc(C(=O)Nc2nc3ncc(-c4ccc(Cl)cc4)nc3s2)c(-c2ccccc2C#N)c1` [Compound 37, N-(6-(4-chlorophenyl)thiazolo[4,5-b]pyrazin-2-yl)-2′,5-dicyano-[1,1′-biphenyl]-2-carboxamide], the IC50 is < 100 nM.

For `C#Cc1ccccc1-c1cc(C)ncc1C(=O)Nc1nc2ncc(-c3ccc(C#N)cc3)cc2s1` [Compound 60, N-(6-(4-cyanophenyl)thiazolo[4,5-b]pyridin-2-yl)-4-(2-ethynylphenyl)-6-methylpyridine-3-carboxamide], the IC50 is < 100 nM.

As for `COc1ccccc1-c1cnccc1C(=O)Nc1nc2ncc(-c3ccc(Cl)cc3)cc2s1` [Compound 10, N-(6-(4-chlorophenyl)thiazolo[4,5-b]pyridin-2-yl)-3-(2-methoxyphenyl)isonicotinamide], the IC50 is < 100 nM.

Take `COc1cnc(C)cc1-c1cc(C)ncc1C(=O)Nc1nc2ncc(C3CCOC3)nc2s1` (stereo not drawn) [Compound 69-P1, N-(6-(tetrahydrofuran-3-yl)thiazolo[4,5-b]pyrazin-2-yl)-5′-methoxy-2′,6-dimethyl-[4,4′-bipyridine]-3-carboxamide]: the IC50 was < 100 nM.

For the compound `COc1ccccc1-c1cncc(F)c1C(=O)Nc1nc2ncc(-c3ccc(C#N)cc3)nc2s1` [Compound 54, N-(6-(4-cyanophenyl)thiazolo[4,5-b]pyrazin-2-yl)-3-fluoro-5-(2-methoxyphenyl)pyridine-4-carboxamide], the IC50 is < 100 nM.

As to `COc1ccccc1-c1cncnc1C(=O)Nc1nc2ncc(-c3ccc(C#N)cc3)nc2s1` [Compound 52, N-(6-(4-cyanophenyl)thiazolo[4,5-b]pyrazin-2-yl)-5-(2-methoxyphenyl)pyrimidine-4-carboxamide], the IC50 was < 100 nM.

Consider `COc1ccccc1-c1cc(C#N)ncc1C(=O)Nc1nc2ncc(-c3ccc(C#N)cc3)nc2s1` [Compound 35, 6-cyano-N-(6-(4-cyanophenyl)thiazolo[4,5-b]pyrazin-2-yl)-4-(2-methoxyphenyl)pyridine-3-carboxamide], for which the IC50 is < 100 nM.

For the compound `COc1cccc(F)c1-c1cnccc1C(=O)Nc1nc2ncc(-c3ccc(Cl)cc3)nc2s1` [Compound 3, N-(6-(4-chlorophenyl)thiazolo[4,5-b]pyrazin-2-yl)-3-(2-fluoro-6-methoxyphenyl)pyridine-4-carboxamide], the IC50 is < 100 nM.

Consider `COc1cc(C#N)ccc1-c1cnc2nc(NC(=O)c3ccncc3-c3ccccc3OC)sc2n1` [Compound 15, N-(6-(4-cyano-2-methoxyphenyl)thiazolo[4,5-b]pyrazin-2-yl)-3-(2-methoxyphenyl)isonicotinamide], for which the half-inhibitory concentration (IC50) is < 100 nM.

In the case of `N#Cc1cc(-c2ccccc2OC(F)F)c(C(=O)Nc2nc3ncc(-c4ccc(Cl)cc4)nc3s2)cn1` [Compound 18, N-(6-(4-chlorophenyl)thiazolo[4,5-b]pyrazin-2-yl)-6-cyano-4-(2-(difluoromethoxy)phenyl)nicotinamide], the IC50 was < 100 nM.

In the case of `COc1ccccc1-c1cnc(C(F)(F)F)cc1C(=O)Nc1nc2ncc(-c3ccc(C#N)cc3)nc2s1` [Compound 53, N-(6-(4-cyanophenyl)thiazolo[4,5-b]pyrazin-2-yl)-5-(2-methoxyphenyl)-2-(trifluoromethyl)pyridine-4-carboxamide], the IC50 lay in the range of 100 to 500 nM.

Regarding `C#Cc1cccc(F)c1-c1cc(C)ncc1C(=O)Nc1nc2ncc(-c3ccc(C#N)cc3)nc2s1` [Compound 49, N-(6-(4-cyanophenyl)thiazolo[4,5-b]pyrazin-2-yl)-4-(2-ethynyl-6-fluorophenyl)-6-methylpyridine-3-carboxamide], the IC50 was < 100 nM.

`C#Cc1ccccc1-c1cc(C#N)ncc1C(=O)Nc1nc2ncc(-c3ccc(Cl)cc3)nc2s1` [Compound 38, N-(6-(4-chlorophenyl)thiazolo[4,5-b]pyrazin-2-yl)-6-cyano-4-(2-ethynylphenyl)pyridine-3-carboxamide]: the IC50 is < 100 nM.

In the case of `COc1ccccc1-c1cnccc1C(=O)Nc1nc2cnc(-c3ccc(Cl)cc3)nc2s1` [Compound 8, N-(5-(4-chlorophenyl)thiazolo[5,4-d]pyrimidin-2-yl)-3-(2-methoxyphenyl)pyridine-4-carboxamide], the IC50 was < 100 nM.

`N#Cc1ccc(-c2cnc3nc(NC(=O)c4cnc(C#N)cc4N4CCOCC4)sc3n2)cc1` [Compound 39, 6-cyano-N-(6-(4-cyanophenyl)thiazolo[4,5-b]pyrazin-2-yl)-4-morpholinopyridine-3-carboxamide]: the IC50 was < 100 nM.

As to `COc1ccccc1-c1cc(C)ncc1C(=O)Nc1nc2ncc(-c3ccc(C#N)cc3)nc2s1` [Compound 31, N-(6-(4-cyanophenyl)thiazolo[4,5-b]pyrazin-2-yl)-4-(2-methoxyphenyl)-6-methylpyridine-3-carboxamide], the IC50 is < 100 nM.

For the compound `COc1cnc(C)c(F)c1-c1cc(C)ncc1C(=O)Nc1nc2ncc(-c3ccc(C#N)cc3)nc2s1` [Compound 76, N-(6-(4-cyanophenyl)thiazolo[4,5-b]pyrazin-2-yl)-3′-fluoro-5′-methoxy-2′,6-dimethyl-[4,4′-bipyridine]-3-carboxamide], the IC50 was < 100 nM.

`COc1ccccc1-c1cnccc1C(=O)Nc1nc2ccc(-c3ccc(Cl)cc3)nc2s1` [Compound 1, N-(5-(4-chlorophenyl)thiazolo[5,4-b]pyridin-2-yl)-3-(2-methoxyphenyl)pyridine-4-carboxamide] had an IC50 of 100 to 500 nM.

In the case of `COc1ccccc1-c1cnccc1C(=O)Nc1nc2ncc(-c3ccc(C#N)cc3F)nc2s1` [Compound 13, N-(6-(4-cyano-2-fluorophenyl)thiazolo[4,5-b]pyrazin-2-yl)-3-(2-methoxyphenyl)isonicotinamide], the concentration for half-maximal inhibition (IC50) is < 100 nM.

For `COc1ccc(C#N)cc1-c1cc(C)ncc1C(=O)Nc1nc2ncc(-c3ccc(C4CC4)cn3)nc2s1` [Compound 22, 4-(5-cyano-2-methoxyphenyl)-N-(6-(5-cyclopropylpyridin-2-yl)thiazolo[4,5-b]pyrazin-2-yl)-6-methylnicotinamide], the IC50 was < 100 nM.

Turning to `COc1ccccc1-c1cnccc1C(=O)Nc1nc2ncc(-c3ccc(C#N)c(F)c3)nc2s1` [Compound 12, N-(6-(4-cyano-3-fluorophenyl)thiazolo[4,5-b]pyrazin-2-yl)-3-(2-methoxyphenyl)isonicotinamide], the IC50 was < 100 nM.

Take `COc1ccccc1-c1cc(C#N)ncc1C(=O)Nc1nc2ncc(-c3ccc(Cl)cc3)nc2s1` [Compound 28, N-(6-(4-chlorophenyl)thiazolo[4,5-b]pyrazin-2-yl)-6-cyano-4-(2-methoxyphenyl)pyridine-3-carboxamide]: the IC50 is < 100 nM.

The values above are taken from patent US20250122221A1 (NANJING ZAIMING PHARMACEUTICAL CO., LTD., priority 2022, published 2025).
